Results taken from ChEMBL document CHEMBL1201862, “PubChem BioAssay data set” (2004).
Calls of active or inactive are those of the source.

How the values were obtained:
[1] = target: Glutathione S-transferase omega-1 (Homo sapiens, UniProt P78417); experiment: IC50 of human GSTO1 blockade by gel ABPP – biochemical, SE-Rh probe, in-gel fluorescence, powder samples, set 2, late-stage follow-up (AID 463142); assay type: functional
[2] = viability of PTEN-deleted HCT116 cells – cell-based, HCT116 PTEN knockout, dose response (AID 1047); assay type: functional;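 further: HCT116 colon tumor cells with PTEN knocked out; cells exposed to compound for 60 hours before readout; potency for loss of cell viability measured by luminescence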
[3] = target: Scavenger receptor class B member 1 (Mus musculus, UniProt Q61009); experiment: mouse SR-BI DiI-HDL uptake blockers – ldlA[mSR-BI] cells, fluorescence, cherry pick, dose response (AID 493194); assay type: functional, cell-based;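 further: cellular uptake of fluorescent DiI-labeled HDL measured as cell fluorescence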
[4] = viability of HCT116 lacking mutant beta-catenin – cell-based, human colon tumor, dose response (AID 1045); assay type: functional;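 further: HCT116 colon tumor cells with beta catenin knocked out; cells exposed to compound for 60 hours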
[5] = target: Protein phosphatase methylesterase 1 (Homo sapiens, UniProt Q9Y570); experiment: endogenous PME-1 and serine hydrolase inhibition – cell lysate, mouse brain cytosol, FP-rhodamine, gel ABPP, selectivity assay for PME-1 inhibitor project, dose response, panel member PME-1 Assay Panel member description: Inhibition of endogenously expressed PME-1 (AID 2366)
[6] = target: Phosphoethanolamine/phosphocholine phosphatase (Homo sapiens, UniProt Q8TCT1); experiment: SAR assay for compounds that inhibit PHOSPHO1. [Related pubchem assays (depositor defined):AID1545, AID1565, AID1574]
Phosphomannomutase 2 = Phosphomannomutase 2 (Homo sapiens, UniProt O15305); experiment: Counter screen SAR assay for PMM2 inhibitors via a fluorescence intensity assay. [Related pubchem assays (depositor defined):AID1545, AID1574]
[7] = target: T1, Mannose-6-phosphate isomerase (Homo sapiens, UniProt P34949); experiment: phosphomannose isomerase inhibition – biochemical, fluorescence intensity, confirmation (AID 1535)
T1 sequence (P34949 whole entry): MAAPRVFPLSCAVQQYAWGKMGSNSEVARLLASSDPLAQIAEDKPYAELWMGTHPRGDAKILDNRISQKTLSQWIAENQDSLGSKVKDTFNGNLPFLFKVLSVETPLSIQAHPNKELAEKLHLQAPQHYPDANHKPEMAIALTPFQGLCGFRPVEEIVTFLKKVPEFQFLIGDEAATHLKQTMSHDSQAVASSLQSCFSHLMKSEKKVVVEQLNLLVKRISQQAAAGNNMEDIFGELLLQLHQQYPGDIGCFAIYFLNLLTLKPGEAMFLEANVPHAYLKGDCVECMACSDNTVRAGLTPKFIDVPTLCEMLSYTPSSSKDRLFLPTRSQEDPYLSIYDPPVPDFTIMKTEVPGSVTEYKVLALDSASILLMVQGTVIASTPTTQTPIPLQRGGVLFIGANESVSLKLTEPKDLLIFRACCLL

[8] = target: T2, Carboxy-terminal domain RNA polymerase II polypeptide A small phosphatase 1 (Homo sapiens, UniProt Q9GZU7); experiment: CTDSP1 inhibitors, concentration-response, biochemical, absorbance readout, ultra-high-throughput screen actives (AID 540297); assay type: functional
T2 sequence (Q9GZU7 whole entry): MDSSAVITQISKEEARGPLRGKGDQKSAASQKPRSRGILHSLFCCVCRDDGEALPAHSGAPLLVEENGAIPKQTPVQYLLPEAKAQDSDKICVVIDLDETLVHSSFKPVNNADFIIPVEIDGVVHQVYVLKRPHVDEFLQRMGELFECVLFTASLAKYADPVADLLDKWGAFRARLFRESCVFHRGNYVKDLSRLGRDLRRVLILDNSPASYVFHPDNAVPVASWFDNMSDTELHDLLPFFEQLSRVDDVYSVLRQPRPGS

[9] = target: Bifunctional protein GlmU (Mycobacterium tuberculosis, UniProt P9WMN3); experiment: Inhibitors of Mycobacterial Glucosamine-1-phosphate acetyl transferase (GlmU). Secondary screen.; set-up: species or system Mycobacterium tuberculosis H37Rv
[10] = target: T3, Histone-lysine N-methyltransferase NSD2 (Homo sapiens, UniProt O96028); assay type: biochemical
T3 sequence (O96028 whole entry): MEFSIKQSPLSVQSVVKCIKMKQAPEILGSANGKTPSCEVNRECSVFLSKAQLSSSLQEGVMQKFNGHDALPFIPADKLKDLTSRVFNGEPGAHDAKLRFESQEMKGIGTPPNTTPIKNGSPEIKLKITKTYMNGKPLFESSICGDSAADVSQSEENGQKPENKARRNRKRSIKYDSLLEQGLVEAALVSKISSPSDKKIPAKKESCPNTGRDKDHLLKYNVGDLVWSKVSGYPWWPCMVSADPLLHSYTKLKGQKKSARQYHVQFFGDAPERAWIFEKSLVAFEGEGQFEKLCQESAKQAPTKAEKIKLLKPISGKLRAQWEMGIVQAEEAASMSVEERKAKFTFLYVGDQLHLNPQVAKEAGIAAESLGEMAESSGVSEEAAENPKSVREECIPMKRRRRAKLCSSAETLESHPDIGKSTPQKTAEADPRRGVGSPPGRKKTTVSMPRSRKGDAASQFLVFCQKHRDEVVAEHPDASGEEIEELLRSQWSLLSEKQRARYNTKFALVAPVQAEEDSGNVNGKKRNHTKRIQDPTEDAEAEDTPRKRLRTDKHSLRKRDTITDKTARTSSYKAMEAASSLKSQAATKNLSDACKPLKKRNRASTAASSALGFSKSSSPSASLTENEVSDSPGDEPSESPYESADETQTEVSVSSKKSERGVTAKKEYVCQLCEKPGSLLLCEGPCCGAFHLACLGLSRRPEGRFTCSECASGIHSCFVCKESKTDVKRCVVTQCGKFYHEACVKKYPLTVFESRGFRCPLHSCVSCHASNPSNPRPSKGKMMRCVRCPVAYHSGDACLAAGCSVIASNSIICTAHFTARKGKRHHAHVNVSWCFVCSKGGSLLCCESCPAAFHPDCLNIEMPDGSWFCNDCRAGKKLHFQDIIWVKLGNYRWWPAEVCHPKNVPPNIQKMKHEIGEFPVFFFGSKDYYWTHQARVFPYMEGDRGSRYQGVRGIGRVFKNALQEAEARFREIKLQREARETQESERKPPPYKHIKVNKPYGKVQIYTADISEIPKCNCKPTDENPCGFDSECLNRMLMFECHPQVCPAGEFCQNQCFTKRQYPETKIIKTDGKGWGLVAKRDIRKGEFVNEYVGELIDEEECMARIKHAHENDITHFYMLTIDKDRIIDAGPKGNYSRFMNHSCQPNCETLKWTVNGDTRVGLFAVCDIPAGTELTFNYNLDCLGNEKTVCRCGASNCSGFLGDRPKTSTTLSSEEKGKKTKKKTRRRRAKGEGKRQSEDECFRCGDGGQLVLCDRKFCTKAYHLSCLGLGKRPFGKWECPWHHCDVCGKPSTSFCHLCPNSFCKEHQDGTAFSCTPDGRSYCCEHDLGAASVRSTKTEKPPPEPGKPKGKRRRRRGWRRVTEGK

Bcl-2-like protein 10 = Bcl-2-like protein 10 (Homo sapiens, UniProt Q9HD36); experiment: Bcl-B/TR3 peptide binding disruption – biochemical, fluorescence polarization, FITC-TR3 peptide, selectivity assay for Bfl-1 inhibitor project, primary screen (AID 748);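 further: fluorescence polarization from a fluorescein-labelled TR3 peptide binding purified Bcl-B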
[11] = target: Potassium voltage-gated channel subfamily KQT member 2 (Rattus norvegicus, UniProt O88943); experiment: potentiation of rat KCNQ2 current – cell-based, retigabine-insensitive compounds, dose response (AID 2654); assay type: functional
Potassium voltage-gated channel subfamily KQT member 2, sequence (O88943 whole entry): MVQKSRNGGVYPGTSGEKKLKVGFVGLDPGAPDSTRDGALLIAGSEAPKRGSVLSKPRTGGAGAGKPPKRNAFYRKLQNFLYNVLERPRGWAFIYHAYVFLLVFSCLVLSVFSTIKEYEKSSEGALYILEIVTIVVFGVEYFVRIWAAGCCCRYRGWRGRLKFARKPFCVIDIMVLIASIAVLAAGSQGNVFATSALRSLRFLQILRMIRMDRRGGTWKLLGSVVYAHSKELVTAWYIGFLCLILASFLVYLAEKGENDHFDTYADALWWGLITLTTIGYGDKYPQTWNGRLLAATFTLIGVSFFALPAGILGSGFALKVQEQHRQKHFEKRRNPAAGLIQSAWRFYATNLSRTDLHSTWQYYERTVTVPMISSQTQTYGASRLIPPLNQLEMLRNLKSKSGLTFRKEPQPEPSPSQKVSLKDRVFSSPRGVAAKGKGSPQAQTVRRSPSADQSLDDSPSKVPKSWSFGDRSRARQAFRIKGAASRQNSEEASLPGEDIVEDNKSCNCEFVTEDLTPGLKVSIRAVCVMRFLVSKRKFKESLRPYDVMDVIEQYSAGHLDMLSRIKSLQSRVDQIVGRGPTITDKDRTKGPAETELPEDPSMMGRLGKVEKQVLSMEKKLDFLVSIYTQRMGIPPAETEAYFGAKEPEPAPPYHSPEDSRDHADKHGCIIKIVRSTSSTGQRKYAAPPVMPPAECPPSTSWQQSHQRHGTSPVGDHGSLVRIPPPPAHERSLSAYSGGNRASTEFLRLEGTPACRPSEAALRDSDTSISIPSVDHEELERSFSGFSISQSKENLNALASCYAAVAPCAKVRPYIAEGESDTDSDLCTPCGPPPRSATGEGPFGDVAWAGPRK

Bifunctional protein GlmU, sequence (P9WMN3 whole entry): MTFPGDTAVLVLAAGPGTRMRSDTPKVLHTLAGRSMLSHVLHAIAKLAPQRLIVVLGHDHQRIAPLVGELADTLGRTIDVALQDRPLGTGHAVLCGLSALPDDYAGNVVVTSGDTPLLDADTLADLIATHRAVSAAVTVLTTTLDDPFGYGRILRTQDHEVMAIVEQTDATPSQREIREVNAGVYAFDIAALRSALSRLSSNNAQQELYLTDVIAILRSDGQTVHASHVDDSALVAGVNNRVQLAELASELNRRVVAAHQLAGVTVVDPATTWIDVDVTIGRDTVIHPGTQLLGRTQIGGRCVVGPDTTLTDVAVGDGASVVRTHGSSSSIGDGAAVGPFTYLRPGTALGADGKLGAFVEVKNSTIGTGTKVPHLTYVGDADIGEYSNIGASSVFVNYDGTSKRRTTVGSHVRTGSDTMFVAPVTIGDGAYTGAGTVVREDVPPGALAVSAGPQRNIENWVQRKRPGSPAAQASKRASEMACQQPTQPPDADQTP
Bcl-2-like protein 10, sequence (Q9HD36 whole entry): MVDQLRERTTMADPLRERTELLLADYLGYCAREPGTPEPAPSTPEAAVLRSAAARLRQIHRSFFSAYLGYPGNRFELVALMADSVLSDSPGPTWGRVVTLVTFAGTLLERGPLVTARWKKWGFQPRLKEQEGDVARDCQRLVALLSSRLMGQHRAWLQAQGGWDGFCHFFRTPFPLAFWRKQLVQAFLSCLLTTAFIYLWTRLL
Phosphomannomutase 2, sequence (O15305 whole entry): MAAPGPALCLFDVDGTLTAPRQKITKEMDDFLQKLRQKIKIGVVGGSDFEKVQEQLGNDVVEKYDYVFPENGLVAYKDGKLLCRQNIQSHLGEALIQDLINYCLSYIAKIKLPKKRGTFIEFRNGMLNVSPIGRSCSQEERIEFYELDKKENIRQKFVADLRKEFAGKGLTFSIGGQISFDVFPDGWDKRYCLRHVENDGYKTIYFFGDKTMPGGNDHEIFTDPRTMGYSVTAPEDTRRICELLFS
Phosphoethanolamine/phosphocholine phosphatase, sequence (Q8TCT1 whole entry): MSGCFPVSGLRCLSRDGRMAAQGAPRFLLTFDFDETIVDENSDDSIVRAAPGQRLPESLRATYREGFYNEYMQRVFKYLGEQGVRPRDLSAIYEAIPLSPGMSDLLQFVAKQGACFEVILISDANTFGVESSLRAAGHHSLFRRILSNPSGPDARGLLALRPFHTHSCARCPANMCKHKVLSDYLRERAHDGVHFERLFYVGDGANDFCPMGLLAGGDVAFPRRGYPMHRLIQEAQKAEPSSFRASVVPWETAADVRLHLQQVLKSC
Protein phosphatase methylesterase 1, sequence (Q9Y570 whole entry): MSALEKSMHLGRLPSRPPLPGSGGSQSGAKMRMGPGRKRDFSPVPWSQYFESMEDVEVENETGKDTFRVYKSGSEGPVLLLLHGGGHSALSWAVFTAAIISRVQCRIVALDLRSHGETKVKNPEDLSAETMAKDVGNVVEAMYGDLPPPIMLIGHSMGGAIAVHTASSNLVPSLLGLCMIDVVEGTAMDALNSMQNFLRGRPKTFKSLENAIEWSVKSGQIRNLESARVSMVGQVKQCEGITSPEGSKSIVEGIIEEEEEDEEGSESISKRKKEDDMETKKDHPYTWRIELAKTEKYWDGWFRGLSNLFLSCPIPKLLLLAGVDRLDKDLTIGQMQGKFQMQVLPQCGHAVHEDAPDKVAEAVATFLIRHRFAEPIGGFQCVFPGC
Scavenger receptor class B member 1, sequence (Q61009 whole entry): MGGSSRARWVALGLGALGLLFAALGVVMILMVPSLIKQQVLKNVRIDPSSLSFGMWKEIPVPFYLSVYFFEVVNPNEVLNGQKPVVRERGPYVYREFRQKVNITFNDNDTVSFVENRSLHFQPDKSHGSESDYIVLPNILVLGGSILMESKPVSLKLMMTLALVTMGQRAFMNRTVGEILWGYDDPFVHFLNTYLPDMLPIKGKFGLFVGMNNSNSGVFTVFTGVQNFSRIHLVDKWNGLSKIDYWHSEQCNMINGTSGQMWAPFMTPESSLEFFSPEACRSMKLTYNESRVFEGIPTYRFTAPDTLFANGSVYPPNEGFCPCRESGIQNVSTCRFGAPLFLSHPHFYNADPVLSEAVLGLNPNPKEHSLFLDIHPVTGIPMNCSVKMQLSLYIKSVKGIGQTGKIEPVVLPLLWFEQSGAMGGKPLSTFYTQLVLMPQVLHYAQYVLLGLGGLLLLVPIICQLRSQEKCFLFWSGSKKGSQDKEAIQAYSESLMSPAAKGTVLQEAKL
Glutathione S-transferase omega-1, sequence (P78417 whole entry): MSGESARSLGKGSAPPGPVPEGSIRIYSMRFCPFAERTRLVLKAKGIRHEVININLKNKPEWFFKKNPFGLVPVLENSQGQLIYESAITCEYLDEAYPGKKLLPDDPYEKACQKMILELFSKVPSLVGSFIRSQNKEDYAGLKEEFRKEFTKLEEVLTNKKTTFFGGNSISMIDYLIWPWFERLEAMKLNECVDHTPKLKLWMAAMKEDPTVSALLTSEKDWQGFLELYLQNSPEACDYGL

With `O=C(CCl)N(CCCCNC(=O)C(F)(F)F)c1ccc([N+](=O)[O-])cc1` the IC50 [1] was 0.012 µM (active).
In the case of `COc1cc(C2CC(=O)c3c([nH]c(C(=O)OCCOC(C)C)c3C)C2)cc(OC)c1OC` (stereo not drawn), the EC50 [2] is reported as 38.4 µM (active), the AC50 [3] is reported as 18 µM (active) and the EC50 [4] is reported as 31 µM (active).
In the case of `CCCCS(=O)(=O)n1cccc1/C=C(\C#N)S(C)(=O)=O`, the IC50 [5] is reported as > 20 µM (inactive).
With `O=c1c2ccc(F)cc2sn1-c1cc(Cl)c(Cl)cc1Cl` the IC50 [6] was 0.563 µM (active), the IC50 (Phosphomannomutase 2) was > 100 µM (inactive) and the IC50 [7] was > 50 µM (inactive).
For `O=C(c1coc(=O)c(Br)c1)N1CCOCC1`, the IC50 [8] was 7.34 µM (active), the IC50 [9] was 88.3 µM (active) and the AC50 [10] was 12.1 µM (active). For the same molecule, the IC50 (Bcl-2-like protein 10) was 34 µM (active).
With `Cc1ccc(NC(=O)Nc2cccnc2)cc1C` the EC50 [11] was 13.4 µM (active).
